Ki data for 5 compounds are collected here from BindingDB's records for doi:10.1021/acs.jmedchem.0c00964 (Philipps-University, 2020).

The term Ki denotes a dissociation constant, usually derived from enzyme kinetics or from competition with a known ligand.

The assay concerns the target T1, Orexin/Hypocretin receptor type 1 (Homo sapiens, UniProt O43613).
T1 sequence (O43613 whole entry): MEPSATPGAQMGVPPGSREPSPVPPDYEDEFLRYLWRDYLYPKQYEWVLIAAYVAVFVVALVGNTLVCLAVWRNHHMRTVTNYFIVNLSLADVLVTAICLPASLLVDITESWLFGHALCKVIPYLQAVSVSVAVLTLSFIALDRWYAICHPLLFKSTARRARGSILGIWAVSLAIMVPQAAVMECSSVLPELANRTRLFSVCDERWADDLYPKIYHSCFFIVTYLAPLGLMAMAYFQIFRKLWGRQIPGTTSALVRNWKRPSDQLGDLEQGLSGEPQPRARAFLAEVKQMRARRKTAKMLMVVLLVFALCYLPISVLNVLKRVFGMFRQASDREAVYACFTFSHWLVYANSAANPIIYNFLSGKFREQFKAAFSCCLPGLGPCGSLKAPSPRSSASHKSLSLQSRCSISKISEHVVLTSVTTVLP
Description: Displacement of [3H]-[…] from human orexin 1 receptor expressed in CHO cells incubated for 2 hrs by whole cell radioligand binding assay. (In general: Loss of bound radioactivity is the signal in a displacement assay; it reports binding, not function.)
With `O=C(c1sc2cccc(F)c2c1Cl)N1CCN(Cc2ccco2)CC1`, the inhibition constant (Ki) was determined as 43.7 µM. That is a double-digit micromolar value. The figure for `O=C1CCCN1c1cccc(C(=O)N(Cc2ccc(F)cc2)C2CC2)c1` is 32.4 µM; for `O=C(/C=C/c1cccc(F)c1)N1CCOc2c(cc(-c3cccnc3)cc2OC[C@H]2CCCCO2)C1` it is 21.4 µM. Under `O=C1NC(=O)C(=Cc2c(OCc3ccccc3F)ccc3ccccc23)C(=O)N1` stands 33.1 µM. Under `COc1ccc(C(=O)Oc2cc(=O)n(-c3ccccc3)c3c2CCCC3)cc1` stands 24.5 µM.
